In PubChem BioAssay (NCI):
“And” between values parts separate entries of the source, which are not always exact repeats. Identical values can stand only once.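 Cultured in 96-well plates, cells were exposed to test compound for 48 hours across five concentrations. GI50 is the concentration that inhibits growth by half. TGI marks complete inhibition of growth.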

Assays:
Assay in all cases: growth of human tumour cells (NCI), 48 h
UACC-62 melanoma = system: UACC-62 melanoma
RXF 393 renal = system: RXF 393 renal
SK-MEL-28 melanoma = system: SK-MEL-28 melanoma
CCRF-CEM leukemia = system: CCRF-CEM leukemia
UACC-257 melanoma = system: UACC-257 melanoma
SNB-75 CNS = system: SNB-75 CNS
ACHN renal = system: ACHN renal
KM12 colon = system: KM12 colon
HCT-15 colon = system: HCT-15 colon
SK-OV-3 ovarian = system: SK-OV-3 ovarian

## Nc1ccn(C2OC(CO)C(O)C2F)c(=O)n1 (centres undefined)
UACC-62 melanoma
  GI50: > 5000 µM
  TGI: > 5000 µM
RXF 393 renal
  GI50: > 5000 µM
  TGI: > 5000 µM
SK-MEL-28 melanoma
  GI50: > 5000 µM
  TGI: > 5000 µM
CCRF-CEM leukemia
  GI50: 1.67 µM
UACC-257 melanoma
  GI50: > 5000 µM
  TGI: > 5000 µM
SNB-75 CNS
  GI50: > 5000 µM
  TGI: > 5000 µM
ACHN renal
  GI50: > 5000 µM
  TGI: > 5000 µM
KM12 colon
  GI50: > 5000 µM
  TGI: > 5000 µM
HCT-15 colon
  GI50: > 5000 µM
  TGI: > 5000 µM
SK-OV-3 ovarian
  GI50: > 5000 µM
  TGI: > 5000 µM

## CN(C)CCCOc1ccccc1NC1=C(Cl)C(=O)C(Nc2ccccc2OCCCN(C)C)=C(Cl)C1=O
UACC-62 melanoma
  GI50: 1.58 µM
  TGI: 3.05 µM
RXF 393 renal
  GI50: 1.17 µM
  TGI: 2.43 µM
SK-MEL-28 melanoma
  GI50: 1.72 µM
  TGI: 3.13 µM
CCRF-CEM leukemia
  GI50: 0.262 µM
  TGI: 1.3 µM
UACC-257 melanoma
  GI50: 1.17 µM
  TGI: 2.69 µM
SNB-75 CNS
  GI50: 1.62 µM
  TGI: 3.02 µM
ACHN renal
  GI50: 0.941 µM
  TGI: 2.13 µM
KM12 colon
  GI50: 0.762 µM
  TGI: 2.2 µM
HCT-15 colon
  GI50: 0.749 µM
  TGI: 2.18 µM
SK-OV-3 ovarian
  GI50: 1.66 µM
  TGI: 3.02 µM

## COc1ccc(C#Cc2ccccc2C#CCCCCO)cc1
UACC-62 melanoma
  GI50: 15.9 µM
  TGI: 29.8 µM
RXF 393 renal
  GI50: 16 µM
  TGI: 33.6 µM
SK-MEL-28 melanoma
  GI50: 12.2 µM
  TGI: 24.8 µM
CCRF-CEM leukemia
  GI50: 23.5 µM
  TGI: 53.8 µM
UACC-257 melanoma
  GI50: 19.5 µM
  TGI: 35.8 µM
SNB-75 CNS
  GI50: 18.4 µM
  TGI: 38.9 µM
ACHN renal
  GI50: 21.7 µM
  TGI: 45 µM
KM12 colon
  GI50: 17.7 µM
  TGI: 33.4 µM
HCT-15 colon
  GI50: 16.3 µM
  TGI: 29.9 µM
SK-OV-3 ovarian
  GI50: 19.9 µM
  TGI: 39.7 µM

## COC1=CC(c2ccc[nH]2)=N/C1=C\c1[nH]c(C)c(C(=O)OCc2ccccc2)c1C
UACC-62 melanoma
  GI50: 0.0579 µM
  TGI: 0.193 µM
RXF 393 renal
  GI50: 0.116 µM
  TGI: 1.41 µM
SK-MEL-28 melanoma
  GI50: 0.353 µM
  TGI: 1.71 µM
CCRF-CEM leukemia
  GI50: 0.0404 µM
  TGI: > 28.3 µM
UACC-257 melanoma
  GI50: 0.316 µM
  TGI: 1.83 µM
SNB-75 CNS
  GI50: 0.127 µM
  TGI: 0.632 µM
ACHN renal
  GI50: 0.081 µM
  TGI: 1.15 µM
KM12 colon
  GI50: 0.0525 µM
  TGI: 1.52 µM
HCT-15 colon
  GI50: 0.0333 µM
  TGI: 1.09 µM
SK-OV-3 ovarian
  GI50: 0.824 µM
  TGI: 4.86 µM

## COc1ccc(S(=O)(=O)NC(C)C(=O)O)cc1 (centres undefined)
UACC-62 melanoma
  TGI: > 100 µM
RXF 393 renal
  TGI: > 100 µM
SK-MEL-28 melanoma
  TGI: > 100 µM
CCRF-CEM leukemia
  TGI: > 100 µM
UACC-257 melanoma
  TGI: > 100 µM
SNB-75 CNS
  TGI: > 100 µM
ACHN renal
  TGI: > 100 µM
KM12 colon
  TGI: > 100 µM
HCT-15 colon
  TGI: > 100 µM
SK-OV-3 ovarian
  TGI: > 100 µM

## CN(C)c1ccc2c(c1)C(=O)N(OS(=O)(=O)c1ccc([N+](=O)[O-])cc1)C2=O
UACC-62 melanoma
  TGI: 31.8 µM
RXF 393 renal
  TGI: 28.1 µM
SK-MEL-28 melanoma
  TGI: 63.9 µM
CCRF-CEM leukemia
  TGI: 63.1 µM
UACC-257 melanoma
  TGI: 58.8 µM
SNB-75 CNS
  TGI: > 100 µM
ACHN renal
  TGI: 59.9 µM
KM12 colon
  TGI: 75.5 µM
HCT-15 colon
  TGI: > 100 µM
SK-OV-3 ovarian
  TGI: > 100 µM

## CC(C)[C@](O)(c1ccc2cc(OC(F)F)c(OC(F)F)cc2c1)c1cn[nH]n1
UACC-62 melanoma
  GI50: 20.1 µM and 13 µM
  TGI: 39.6 µM and 29.8 µM
RXF 393 renal
  GI50: 15 µM and 14.4 µM
  TGI: 29.1 µM and 28.3 µM
SK-MEL-28 melanoma
  GI50: 18.5 µM and 19.6 µM
  TGI: 36.9 µM and 40.8 µM
CCRF-CEM leukemia
  GI50: 23.8 µM and 24.2 µM
  TGI: 59 µM and 85.1 µM
UACC-257 melanoma
  GI50: 21.5 µM and 21.8 µM
  TGI: 47.7 µM and 46.1 µM
SNB-75 CNS
  GI50: 11.8 µM and 9.7 µM
  TGI: 36.1 µM and 27.1 µM
ACHN renal
  GI50: 25.7 µM and 19.3 µM
  TGI: 93.3 µM and 54 µM
KM12 colon
  GI50: 20.3 µM and 15.2 µM
  TGI: 41.7 µM and 31.2 µM
HCT-15 colon
  GI50: 13.9 µM and 14.4 µM
  TGI: 31.5 µM and 31.8 µM
SK-OV-3 ovarian
  GI50: 14.6 µM and 17.7 µM
  TGI: 38.6 µM and 45.5 µM

## CC1=CCC[C@@]2(C)C(CC[C@@H]2C(C)/C=C/C(C)C)c2ccc(cc2C(=O)O)C[C@@H](O)CC1 (some centres undefined)
UACC-62 melanoma
  TGI: 23 µM
RXF 393 renal
  TGI: 30 µM
SK-MEL-28 melanoma
  TGI: 28.4 µM
CCRF-CEM leukemia
  TGI: 20.8 µM
UACC-257 melanoma
  TGI: 30.5 µM
SNB-75 CNS
  TGI: 27.4 µM
ACHN renal
  TGI: 18.7 µM
KM12 colon
  TGI: 24.8 µM
HCT-15 colon
  TGI: 18.5 µM
SK-OV-3 ovarian
  TGI: 32.3 µM

## Cc1ccc(C)c(NC(=O)C(=O)CC(=O)C2CCOC2=O)c1 (centres undefined)
UACC-62 melanoma
  TGI: > 100 µM
RXF 393 renal
  TGI: > 100 µM
SK-MEL-28 melanoma
  TGI: > 100 µM
CCRF-CEM leukemia
  TGI: > 100 µM
UACC-257 melanoma
  TGI: > 100 µM
SNB-75 CNS
  TGI: > 100 µM
ACHN renal
  TGI: > 100 µM
KM12 colon
  TGI: > 100 µM
HCT-15 colon
  TGI: > 100 µM
SK-OV-3 ovarian
  TGI: > 100 µM

## N#C/C(=C\c1ccccc1O)C(N)=O
UACC-62 melanoma
  TGI: > 100 µM
RXF 393 renal
  TGI: 87.5 µM
SK-MEL-28 melanoma
  TGI: > 100 µM
CCRF-CEM leukemia
  TGI: 83.1 µM
UACC-257 melanoma
  TGI: > 100 µM
SNB-75 CNS
  TGI: 69.7 µM
ACHN renal
  TGI: > 100 µM
KM12 colon
  TGI: > 100 µM
HCT-15 colon
  TGI: > 100 µM
SK-OV-3 ovarian
  TGI: > 100 µM

## COc1ccc2c(c1)C(=O)c1c-2n(CCCN)c(=O)c2ccccc12
UACC-62 melanoma
  GI50: 0.166 µM
  TGI: 1.21 µM
RXF 393 renal
  GI50: 0.137 µM
  TGI: 0.91 µM
SK-MEL-28 melanoma
  GI50: 0.459 µM
  TGI: 1.89 µM
CCRF-CEM leukemia
  GI50: < 0.0129 µM
  TGI: < 0.0356 µM
UACC-257 melanoma
  GI50: 0.383 µM
  TGI: 2.07 µM
SNB-75 CNS
  GI50: 0.0151 µM
  TGI: 1.54 µM
ACHN renal
  GI50: < 0.0134 µM
  TGI: 0.0408 µM
KM12 colon
  GI50: 0.0144 µM
  TGI: 0.0784 µM
HCT-15 colon
  GI50: 0.0179 µM
  TGI: 0.265 µM
SK-OV-3 ovarian
  GI50: < 0.0202 µM
  TGI: 0.0652 µM

## C=C(Cn1c(=O)c2ccccc2c2ccccc21)c1ccc(C(=O)Nc2ccccc2N)cc1
UACC-62 melanoma
  GI50: 24.1 µM
  TGI: > 100 µM
RXF 393 renal
  GI50: 5.21 µM
  TGI: > 68.5 µM
SK-MEL-28 melanoma
  GI50: > 37.8 µM
  TGI: > 100 µM
CCRF-CEM leukemia
  GI50: 0.466 µM
  TGI: 4.13 µM
UACC-257 melanoma
  GI50: > 41.4 µM
  TGI: > 100 µM
SNB-75 CNS
  GI50: 4.41 µM
  TGI: > 94.4 µM
ACHN renal
  GI50: 43.4 µM
  TGI: > 100 µM
KM12 colon
  GI50: 25.6 µM
  TGI: > 100 µM
HCT-15 colon
  GI50: 33.5 µM
  TGI: > 100 µM
SK-OV-3 ovarian
  GI50: 24.3 µM
  TGI: > 100 µM
